{"source": "patent US20140288079A1", "about": "“SGC STIMULATORS OF SGC ACTIVATORS IN COMBINATION WITH PDE5 INHBITORS FOR THE TREATMENT OF ERECTILE DYSFUNCTION” (BAYER PHARMA AKTIENGESELLSCHAFT, priority 2009, published 2014)", "key": {"[1]": {"test_system": "involved metabolic enzymes", "settings": "stated as fact; cited from earlier work"}, "[2]": {"test_system": "conscious male chinchilla rabbits", "test": "haemodynamic effects by telemetry in conscious rabbits", "type": "in vivo, rabbit", "settings": "stand alone", "source_text": "In brief, telemetric implants (C50 PXT-DSI®) were used. Signals were received with RMC1-DSI® receiver plates, compiled and analyzied with PONEMAH® physiology platform software."}, "[3]": {"test_system": "conscious male chinchilla rabbits", "test": "conscious rabbit ED model, low SNP dose (0.02 mg/kg i.v.), PDE5-resistant ED", "type": "in vivo", "protocol": "(§1) The conscious rabbit ED model previously described (Bischoff and Schneider 2001) was used for the investigation of Erectile function. In brief: conscious male chinchilla rabbits (3-4 kg) were orally treated with the test compounds or with vehicle via gavage, followed by i.v. injection of the NO-donnor sodium nitro-prusside (SNP) in the ear vein, 90 minutes after oral applications. The SNP injections were done in a high dose setting (0.2 mg/kg SNP i.v) and a low dose setting (0.02 mg/kg SNP i.v.) corresponding to the general ED-population and the PDE5 non-responder ED-population, respectively. Penile length was quantified in 5 minutes intervals after injection of the SNP."}, "[4]": {"settings": "previous studies; single administration of 2.0 mg BAY 60-4552; cited from earlier work"}, "[5]": {"test_system": "conscious male chinchilla rabbits", "test": "conscious rabbit ED model, high SNP dose (0.2 mg/kg i.v.), general ED population", "type": "in vivo", "settings": "summary of Example 1; rabbits and rats; in the range of vardenafil", "protocol": "as §1\nThe conscious rabbit ED model previously described (Bischoff and Schneider 2001) was used for the investigation of Erectile function as described in Example 1. The SNP injections were done in a high dose setting (0.2 mg/kg SNP i.v) corresponding to the general ED-population in which PDE5 inhibitors are fully active. Penile length was quantified in 5 minutes intervals after injection of the SNP.\nThe conscious rabbit ED model as described in Expample 1 and Example 6 was used for assessment of responderrates. […] Penile length was quantified in 5 minutes intervals after injection of the SNP. […]"}, "[6]": {"test": "phase I study #14441, pharmacokinetics of co-administration", "type": "in vivo, human", "settings": "for half-life / Tmax: male, human, plasma, po; for Tmax: read-out: median tmax", "source_text": "The study was designed as a randomized, single-blind, placebo-controlled, group-comparison, dose-escalation study."}, "rabbits": {"test_system": "rabbits", "settings": "intravenous and oral applications; cited from earlier work"}}, "data": [{"smiles": "COC(=O)Nc1c(N)nc(-c2nn(Cc3ccccc3F)c3ncccc23)nc1N", "note": "[BAY 60-4552, methyl-4,6-diamino-2-[1-(2-fluorobenzyl)-1H-pyrazolo[3,4-b]pyridin-3-yl]-5-pyrimidinylcarbamate]", "values": [{"measurement": "inhibitor or inducer of the involved metabolic enzymes", "setting": "[1]", "result": "neither vardenafil nor BAY 60-4552 is an inhibitor or inducer"}, {"measurement": "decrease in mean arterial blood pressure", "setting": "[2]; 1 mg/kg p.o.", "result": "−5", "unit": "mmHg"}, {"measurement": "heart rate increase", "setting": "[2]; 1 mg/kg p.o.", "result": "+24 bpm"}, {"measurement": "decrease in blood pressure", "setting": "[2]; 3 mg/kg", "result": "−11", "unit": "mmHg"}, {"measurement": "heart rate increase", "setting": "[2]; 3 mg/kg", "result": "+51 bpm"}, {"measurement": "decrease in blood pressure", "setting": "[2]; 10 mg/kg", "result": "−22", "unit": "mmHg"}, {"measurement": "heart rate increase", "setting": "[2]; 10 mg/kg", "result": "+103 bpm"}, {"measurement": "penile erection (penile length)", "setting": "[3]; low SNP 0.02 mg/kg i.v., 3 and 10 mg/kg p.o. stand alone", "result": "able to induce physiologically relevant erections"}, {"measurement": "effect on heart rate and blood pressure", "setting": "[4]", "result": "no clinically relevant effect on heart rate and blood pressure"}, {"measurement": "erections, stand alone treatment", "setting": "[5]", "result": "significant erections"}, {"measurement": "dose proportionality of exposure", "setting": "[6]; BAY 60-4552 1 mg to 2 mg in combination with vardenafil 2.5 mg to 20 mg", "result": "increased in proportion to the dose"}, {"measurement": "exposure following concomitant administration versus each compound alone", "setting": "[6]", "result": "consistent with historical data"}, {"measurement": "time linearity of pharmacokinetics", "setting": "[6]; in vivo", "result": "time linear"}, {"measurement": "half-life", "setting": "[6]", "result": "13 to 14", "unit": "h"}, {"measurement": "Tmax", "setting": "[6]", "result": "0.5 to 1", "unit": "h"}]}, {"smiles": "CCCc1nn(C)c2c(=O)[nH]c(-c3cc(S(=O)(=O)N4CCN(C)CC4)ccc3OCC)nc12", "note": "[Sildenafil, 3-[2-ethoxy-5-(4-methylpiperazin-1-yl)sulfonyl-phenyl]-7-methyl-9-propy 1-2,4,7,8-tetrazabicyclo[4.3.0]nona-3,8,10-trien-5-one, reference compound]", "values": [{"measurement": "penile erection (penile length)", "setting": "[3]; rabbit, in vivo", "result": "not able to produce any physiologically relevant erection"}]}, {"smiles": "CCCc1nc(C)c2c(=O)[nH]c(-c3cc(S(=O)(=O)N4CCN(CC)CC4)ccc3OCC)nn12", "note": "[Vardenafil, 2-(2-Ethoxy-5-(4-ethylpiperazin-1-yl-1-sulfonyl)phenyl)-5-methyl-7-propyl-3H-imidazo (5,1-f) (1,2,4)triazin-4-one, reference compound]", "values": [{"measurement": "decrease in mean arterial blood pressure", "setting": "[2]; 1 mg/kg p.o.", "result": "−4", "unit": "mmHg"}, {"measurement": "heart rate increase", "setting": "[2]; 1 mg/kg p.o.", "result": "+14 bpm"}, {"measurement": "dose proportionality of exposure", "setting": "[6]; 20 mg vardenafil level", "result": "slightly higher than proportional exposure"}, {"measurement": "exposure following concomitant administration versus each compound alone", "setting": "[6]", "result": "consistent with historical data"}, {"measurement": "half-life", "setting": "[6]", "result": "3 to 5", "unit": "h"}, {"measurement": "Tmax", "setting": "[6]", "result": "0.75 to 1", "unit": "h"}, {"measurement": "dose proportionality of AUC and Cmax", "setting": "[6]; vardenafil 2.5 mg to 10 mg in combination with 1 mg or 2 mg BAY 60-4552", "result": "dose-proportional"}]}, {"smiles": "COC(=O)N(C)c1c(N)nc(-c2nn(Cc3ccccc3F)c3ncccc23)nc1N", "note": "[BAY 63-2521, methyl-4,6-diamino-2-[1-(2-fluorobenzyl)-1H-pyrazolo[3,4-b]pyridin-3-yl]-5-pyrimidinyl-(methyl)carbamate]", "values": [{"measurement": "erections", "setting": "rabbits", "result": "induced stable erections"}]}]}
